Laboratory results published in patent US20090082326A1, “SOLUBLE DOSAGE FORMS CONTAINING CEPHEM DERIVATIVES SUITABLE FOR PARENTERAL ADMINISTRATION” (Forest Laboratories Holdings Limited, priority 2007, published 2009).
Values after ≈ are worked out from the molar mass of the structure shown. Where a name gives a salt, the structure may show the parent alone.

How the values were obtained:
[1] = Linear calculated pharmacokinetic parameters following single dose IM injection; assay type: in vivo, human; conditions: for Mean AUC0-∞ / Mean Cmax / Mean Tmax: prodrug, 228 mg/mL, calculated on linear assumptions; for AUC(0-inf) / Cmax / Tmax: human, in vivo, im
Excerpt: The AUC0-∞ and Cmax values increase or decrease proportionally with the dosage of ceftaroline fosamil. Thus, one skilled in the art with the benefit of this disclosure may readily determine pharmacokinetic parameters for any specific dosage of ceftaroline fosamil (or other prodrugs of ceftaroline) used in a particular dosage form of the invention. The pro-drug in the blood is converted rapidly to the active moiety ceftaroline.
Linear calculated pharmacokinetic parameters for ceftaroline following single dose IM injection of ceftaroline fosamil using vials containing 668 mg ceftaroline fosamil (USAN) at 228 mg/mL, defined per Table 23 are shown in Table 26.
Linear calculated pharmacokinetic parameters for ceftaroline fosamil (INN) following single dose IM injection of ceftaroline fosamil USAN (at concentration of ceftaroline fosamil (anhydrous, acetate free basis of 228 mg/mL, defined per Table 23) are shown in Table 27.

[2] = Part B: multiple-dose IM injection pharmacokinetic study in healthy human subjects; assay type: in vivo
Procedure: (§1) The pharmacokinetic parameters described herein include area under the plasma concentration-time curve (AUC0-t and AUC0-∞), maximum plasma concentration (Cmax), and time of maximum plasma concentration (Tmax). Terminal elimination half-life (T1/2) may also be provided. The time of maximum concentration, Tmax, is determined as the time corresponding to Cmax. Area under the plasma concentration-time curve up to the time corresponding to the last measurable concentration (AUC0-t) is calculated by numerical integration using the linear trapezoidal rule as follows:
(§2) This was a two-part randomized, single and multiple-dose study to determine pharmacokinetics of ceftaroline fosamil and its the active moiety, ceftaroline, administered parenterally (both intramuscular injection and intravenous injection).
(§3) Part A of the study was a single-dose open-label study. Part B of the study was a multiple-dose study.
Eighteen subjects were randomized to one of two treatment groups The IM injection was be administered to the alternating side of the gluteus in each subject.
(§4) The duration of the study for Treatment Groups E and F was 11 days (Days-1 through 10). Ceftaroline dosing solutions for IM injection were prepared using sterile water for injection.
(§5) The pharmacokinetic parameters for ceftaroline fosamil and ceftaroline were determined using a standard assay. Blood for pharmacokinetic parameter analysis was collected from all subjects as follows: The first blood sample was collected at about 5 minutes (about 0.06 hours) after completion of the administration. Measurement was considered essentially zero prior to this point.
(§6) Part A: 5, 15, and 30 minutes and 1, 2, 4, 6, 8, 12, 18, 24, 36 and 48 hours after injection. In addition, blood were be collected from subjects receiving IV infusion immediately prior to drug injection on day 8 and at 20, 40, 60 (immediately before the end of the study-drug infusion), 65 and 75 minutes, and 1.5, 2, 3, 4, 6, 8, 12, 24, 36 and 48 hours after the start of the drug infusion on Day 8. Part B: Drug injection on Days 1 and 5, at 5, 15, and 30 minutes and 1, 2, 4, 6, […] after the first injection on Day 1, immediately prior to (within 15 minutes) of injection of morning dose on Day 4, at 12 hours post Day 4 morning dose (before evening dose) and at 5, and 30 minutes and 1, 2, 4, 6, 8, 12, 24, 36 and 48 hours after the last (morning) injection on Day 5.

[3] = Part A: single-dose IM injection and IV infusion pharmacokinetic study in healthy human subjects; assay type: in vivo; conditions: for Mean AUC0-∞ / Mean Cmax / Mean Tmax: prodrug; for AUC(0-inf): AUC0-∞; for half-life: T1/2
Procedure: as §1, §2, §3
Twenty four subjects (six subjects per treatment group) were randomized to one of four treatment groups (A-D): The following doses were administered using vials containing 668 mg ceftaroline fosamil (USAN, molecular formula C22H21N8O8PS4.C2H4O2.H2O, molecular weight 762.75).
as §4, §5, §6

[4] = test system: aerobic and some anaerobic Gram-positive and Gram-negative bacteria; assay: In vitro antimicrobial spectrum (MIC90); assay type: cell-based; conditions: read-out: minimum inhibitory concentration which inhibits 90% of the microbial strains in a given species (MIC90)
[5] = Aqueous solubility (stated in the description); assay type: physicochemical; conditions: water
[6] = single dose IM ceftaroline fosamil (USAN) 223 mg (≡200 mg INN)
[7] = single dose IM ceftaroline fosamil (USAN) 557 mg (≡500 mg INN)
[8] = single dose IM ceftaroline fosamil (USAN) 891 mg (≡800 mg INN)
[9] = single dose IM ceftaroline fosamil (USAN) 1337 mg (≡1200 mg INN)
[10] = single dose IM ceftaroline fosamil (USAN) 2005 mg (≡1800 mg INN)
[11] = prodrug in plasma, Treatment E: 600 mg (INN) IM q12h, Day 5, 228 mg/mL
[12] = prodrug in plasma, Treatment E: 600 mg (INN) IM, Day 1, 228 mg/mL
[13] = prodrug in plasma, Treatment A: 400 mg (INN) IM, 228 mg/mL
[14] = prodrug in plasma, Treatment B: 600 mg (INN) IM, 165 mg/mL
[15] = prodrug in plasma, Treatment C: 600 mg (INN) IM, Day 1, 228 mg/mL
[16] = prodrug in plasma, Treatment C: 600 mg (INN) IV infusion over 60 mins, Day 8
[17] = prodrug in plasma, Treatment D: 1000 mg (INN) IM, 228 mg/mL
[18] = single dose IM ceftaroline fosamil (USAN) 446 mg (≡400 mg INN), 228 mg/mL
[19] = single dose IM ceftaroline fosamil (USAN) 668 mg (≡600 mg INN), 228 mg/mL
[20] = single dose IM ceftaroline fosamil (USAN) 1114 mg (≡1000 mg INN), 228 mg/mL
[21] = human, in vivo, im, 600 mg, AUC0-t

Compound: CCO/N=C(\C(=O)N[C@@H]1C(=O)N2C(C(=O)[O-])=C(Sc3nc(-c4cc[n+](C)cc4)cs3)CS[C@H]12)c1nsc(NP(=O)(O)O)n1 [Ceftaroline Fosamil (INN), 4-[2-[[(6R,7R)-2-carboxy-7-[[2(Z)-ethoxyimino-[5-(phosphonoamino)-1,2,4-thiadiazol-3-yl]acetyl]amino]-8-oxo-5-thia-1-azabicyclo[4.2.0]oct-2-en-3-yl]thio-4-thiazolyl]-1-methyl-, inner salt]
- Mean AUC0-∞ [1, 6]: 1162 ng·h/mL
- Mean Cmax [1, 6]: 484 ng/mL
- Mean Tmax [1, 6]: 0.3 h
- Mean AUC0-∞ [1, 7]: 2905 ng·h/mL
- Mean Cmax [1, 7]: 1210 ng/mL
- Mean Tmax [1, 7]: 0.5 h
- Mean AUC0-∞ [1, 8]: 4648 ng·h/mL
- Mean Cmax [1, 8]: 1936 ng/mL
- Mean Tmax [1, 8]: 0.5 h
- Mean AUC0-∞ [1, 9]: 6972 ng·h/mL
- Mean Cmax [1, 9]: 2904 ng/mL
- Mean Tmax [1, 9]: 0.5 h
- Mean AUC0-∞ [1, 10]: 10458 ng·h/mL
- Mean Cmax [1, 10]: 4356 ng/mL
- Mean Tmax [1, 10]: 0.5 h
- AUC0-t [2, 11]: 4067 ± 782 ng·h/mL
- Cmax [2, 11]: 2223 ± 497 ng/mL
- T1/2 [2, 11]: 1.11 ± 0.35 h
- Tmax [2, 11]: 0.50 h
- AUC0-t [2, 12]: 3096 ± 850 ng·h/mL
- Cmax [2, 12]: 1575 ± 507 ng/mL
- T1/2 [2, 12]: 1.17 ± 0.52 h
- Tmax [2, 12]: 0.50 h
- more bioavailable than an IV solution of the same strength ([3]; 600 mg (INN) IM solution at 165 mg/mL vs IV): over 50%
- AUC0-t [3, 13]: 1950 ± 401 ng·h/mL
- AUC0-∞ [3, 13]: 2144 ± 421 ng·h/mL
- Cmax [3, 13]: 1113 ± 418 ng/mL
- T1/2 [3, 13]: 1.21 ± 0.49 h
- Tmax [3, 13]: 0.29 h
- AUC0-t [3, 14]: 4846 ± 975 ng·h/mL
- AUC0-∞ [3, 14]: 5118 ± 985 ng·h/mL
- Cmax [3, 14]: 2722 ± 557 ng/mL
- T1/2 [3, 14]: 1.06 ± 0.33 h
- Tmax [3, 14]: 0.75 h
- AUC0-t [3, 15]: 3060 ± 475 ng·h/mL
- AUC0-∞ [3, 15]: 3242 ± 486 ng·h/mL
- Cmax [3, 15]: 1492 ± 275 ng/mL
- T1/2 [3, 15]: 1.57 ± 0.41 h
- Tmax [3, 15]: 0.50 h
- AUC0-t [3, 16]: 2734 ± 340 ng·h/mL
- AUC0-∞ [3, 16]: 2744 ± 344 ng·h/mL
- Cmax [3, 16]: 3549 ± 465 ng/mL
- T1/2 [3, 16]: 0.07 ± 0.03 h
- Tmax [3, 16]: 0.67 h
- AUC0-t [3, 17]: 5791 ± 2795 ng·h/mL
- AUC0-∞ [3, 17]: 6229 ± 2829 ng·h/mL
- Cmax [3, 17]: 2239 ± 657 ng/mL
- T1/2 [3, 17]: 1.87 ± 0.90 h
- Tmax [3, 17]: 0.38 h
- Mean AUC0-∞ [3, 18]: 2144 ng·h/mL
- Mean Cmax [3, 18]: 1113 ng/mL
- Mean Tmax [3, 18]: 0.29 h
- Mean AUC0-∞ [3, 19]: 3242 ng·h/mL
- Mean Cmax [3, 19]: 1492 ng/mL
- Mean Tmax [3, 19]: 0.5 h
- Mean AUC0-∞ [3, 20]: 6229 ng·h/mL
- Mean Cmax [3, 20]: 2238 ng/mL
- Mean Tmax [3, 20]: 0.5 h

Compound: CCO/N=C(\C(=O)N[C@@H]1C(=O)N2C(C(=O)[O-])=C(Sc3nc(-c4cc[n+](C)cc4)cs3)CS[C@H]12)c1nsc(N)n1 [Ceftaroline, ceftaroline]
- MIC90 [4]: ≤ 2000 µg/mL
- AUC(0-inf) ([1]; 223 mg): 17800 ng·h/mL
- Cmax ([1]; 223 mg): 3490 ng/mL
- Tmax ([1]; 223 mg): 1.5 h
- AUC(0-inf) ([1]; 557 mg): 43200 ng·h/mL
- Cmax ([1]; 557 mg): 7900 ng/mL
- Tmax ([1]; 557 mg): 2 h
- AUC(0-inf) ([1]; 891 mg): 81800 ng·h/mL
- Cmax ([1]; 891 mg): 12600 ng/mL
- Tmax ([1]; 891 mg): 2 h
- AUC(0-inf) ([1]; 1337 mg): 133000 ng·h/mL
- Cmax ([1]; 1337 mg): 18800 ng/mL
- Tmax ([1]; 1337 mg): 2 h
- AUC(0-inf) ([1]; 2005 mg): 211000 ng·h/mL
- Cmax ([1]; 2005 mg): 28100 ng/mL
- Tmax ([1]; 2005 mg): 2 h
- AUC0-t ([2]; human, in vivo, im, 600 mg): 65407 ± 11807 ng·h/mL
- T1/2 ([2]; human, in vivo, im, 600 mg): 2.51 ± 0.45 h
- AUC0-t [2, 21]: 55300 ± 11100 ng·h/mL
- half-life ([2]; human, in vivo, im, 600 mg, T1/2): 2.54 ± 0.63 h
- AUC greater at 165 mg/mL than at 228 mg/mL ([3]; human, in vivo): ~56%
- Bioavailability (absolute) ([3]; human, in vivo): 107 ± 7.1%
- Cmax greater at 165 mg/mL than at 228 mg/mL ([3]; human, in vivo): approximately 72%
- bioavailability ([3]; human, in vivo, Bioavailability (absolute)): ~100%
- Cmax ([3]; human, in vivo, im, 400 mg): 6971 ± 1616 ng/mL
- Tmax ([3]; human, in vivo, im, 400 mg): 1.5 (1.0-2.0) h
- AUC0-t ([3]; human, in vivo, im, 400 mg, AUC0-t): 35300 ± 6160 ng·h/mL
- AUC(0-inf) ([3]; human, in vivo, im, 400 mg): 35600 ± 6130 ng·h/mL
- half-life ([3]; human, in vivo, im, 400 mg): 2.36 ± 0.22 h
- AUC0-t ([3]; human, in vivo, im, 600 mg): 73439 ± 12080 ng·h/mL
- AUC0-∞ ([3]; human, in vivo, im, 600 mg): 73826 ± 12031 ng·h/mL
- T1/2 ([3]; human, in vivo, im, 600 mg): 2.27 ± 0.16 h
- Tmax ([3]; human, in vivo, im, 600 mg): 2.0 (1.2-2.0) h
- AUC0-t [3, 21]: 47500 ± 4010 ng·h/mL
- AUC(0-inf) ([3]; human, in vivo, im, 600 mg): 48100 ± 3850 ng·h/mL
- half-life ([3]; human, in vivo, im, 600 mg): 2.55 ± 0.49 h
- Tmax ([3]; human, in vivo, im, 600 mg, Tmax): 2 h
- Cmax ([3]; human, in vivo, im, 1000 mg): 15997 ± 3739 ng/mL
- AUC0-t ([3]; human, in vivo, im, 1000 mg, AUC0-t): 110000 ± 31300 ng·h/mL
- AUC(0-inf) ([3]; human, in vivo, im, 1000 mg): 110000 ± 31300 ng·h/mL
- half-life ([3]; human, in vivo, im, 1000 mg): 2.68 ± 0.31 h
- Tmax ([3]; human, in vivo, im, 1000 mg, Tmax): 2 h
- Tmax ([3]; human, in vivo, im, Mean Tmax): 2 h
- Tmax ([3]; human, in vivo, im, Tmax following IM injection): 1 to 2 h
- Tmax ([3]; human, in vivo, iv): 1.0 (1.0-1.0) h
- half-life ([3]; human, in vivo, iv): 2.13 ± 0.31 h
- Tmax ([3]; human, in vivo, iv, Tmax following IV infusion): ~1 h
- solubility [5]: 2000 to 3000 µg/mL (≈ 3.31 to 4.96 mM)
